Test results taken from the METLIN SMRT retention time set (Domingo-Almenara et al. 2019).

Test: gradient 5% acetonitrile 3 min, to 50% in 2 min, to 85% in 15 min, held 3 min, 100 µL/min
Conditions: column: Zorbax Extend-C18 2.1 x 50 mm; eluents: water / acetonitrile, 0.1% formic acid
Summary of the method: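 Using water and acetonitrile that each contained 0.1% formic acid, mixtures of ~100 pure standards were separated at 100 μL/min on a Zorbax Extend-C18 column (2.1 × 50 mm, 1.8 μm). The HPLC fed a quadrupole time-of-flight mass spectrometer working in positive and negative ionization mode, with dead and dwell volumes of 40 μL and 900 μL. Data were acquired over 3 months. Retention time was read from computationally picked adduct peaks after manual inspection of each.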

Row | SMILES | RP-LC retention time
1 | N#CCCN1CCN(C2=NC(=O)/C(=C\c3cccs3)S2)CC1 | 611 s
2 | c1ccc(CN2CCCC(c3n[nH]c(C4CC4)n3)C2)nc1 (stereo not drawn) | 465 s
3 | CCOc1ccccc1-c1nc(Cc2noc(-c3cccnc3)n2)c(C)o1 | 894 s
4 | Cc1cccc(CC(=O)NCC2CCN(Cc3ccccc3)CC2)c1 | 566 s
5 | CCCN(C)C(=O)CCc1cc2cc(OC)ccc2[nH]c1=O | 675 s
6 | Cc1[nH]c(C(=O)N2CCCC(C(=O)NCc3ccccc3)C2)c(C)c1C(=O)OC(C)C (stereo not drawn) | 860 s
7 | Cc1ccc(-c2noc(C3CCCN3C(=O)c3ccc(C(C)(C)C)cc3)n2)cc1 (stereo not drawn) | 1280 s
8 | Cc1nc(N2CCN(c3ccccn3)CC2)c2c(C)c(C(=O)Nc3ccc(C)c(Cl)c3)sc2n1 | 821 s
9 | N#Cc1cccc(Cn2cc(S(=O)(=O)N3CCCC3)ccc2=O)c1 | 764 s
10 | CCOC(=O)c1ccc(Nc2nc(N3CCCC3)nc(N3CCCC3)n2)cc1 | 772 s
11 | CC(C)c1ccc(OCC(=O)Oc2ccc3c(c2)ncn3C)cc1 | 662 s
12 | COc1ccc(N2CCN(c3cc(SCC(=O)Nc4cc(F)ccc4C)ncn3)CC2)cc1 | 1040 s
13 | COc1ccc(NC(=O)c2cc(C(F)(F)F)n(C)n2)c(OC)c1 | 998 s
14 | COc1ccc(-c2c(C)noc2NC(C)=O)cc1S(=O)(=O)Nc1ccc(F)cc1C | 770 s
15 | Cc1ccc2oc(N3CCCN(C(=O)c4ccc(-c5noc(C6CC6)n5)cc4)CC3)nc2n1 | 648 s
16 | COc1ccc(N2CC(c3noc(-c4cc(C)cc(C)c4)n3)CC2=O)cc1OC (stereo not drawn) | 1010 s
17 | O=c1[nH]c2ccc(NCc3c(F)cccc3Cl)cc2[nH]1 | 636 s
18 | O=C(c1nnn(-c2ccc(Cl)cc2)c1-c1cccnc1)N1CCSCC1 | 780 s
19 | Cc1cccc(-c2nc3sc(N4CCCCC4)nn3c2NC(=O)c2ccnn2C)c1 | 885 s
20 | Cn1c(=O)n(CC(=O)N2CCCCC2)c(=O)c2cnc(-c3ccc(Cl)cc3)nc21 | 1050 s
21 | O=C(CN1C(=O)CCC1=O)N(Cc1ccsc1)Cc1ccco1 | 710 s
22 | CN(Cc1ccccc1)C(=O)c1cc2c(=O)oc3ccccc3c2n1C | 884 s

Row | SMILES | RP-LC retention time
23 | CC(CNC(=O)Cn1c(=O)n(C(C)C)c2ccc(S(=O)(=O)N3CCCC3)cc21)c1ccccc1 (stereo not drawn) | 905 s
24 | CC(C)CC(=O)Nc1ccc(S(=O)(=O)N2CCCC2c2nc(-c3ccccc3)no2)cc1 (stereo not drawn) | 1080 s
25 | O=C(NC1CCCC1)C1CCN(c2nc3ccc(-c4cccnc4)nc3s2)CC1 | 654 s
26 | OCCNCCNCc1ccc(-c2ccccc2F)o1 | 563 s
27 | CCc1noc(NC(C)=O)c1-c1ccc(OC)c(S(=O)(=O)NCc2ccc(F)cc2)c1 | 794 s
28 | CCN1C(=O)COc2cc(-c3noc(C(=O)N4CCN(c5cccc(Cl)c5)CC4)n3)ccc21 | 1140 s
29 | CCCC(NC(=O)c1ccc(OCC)c(OCC)c1)C(=O)Nc1nc2ccccc2[nH]1 (stereo not drawn) | 733 s
30 | CC(C)CCN1CCC(N2CCN(C(=O)c3cccs3)CC2)C1=O (stereo not drawn) | 567 s
31 | Cc1cccc(N2CCN([C@H]3CS(=O)(=O)C[C@@H]3S(=O)(=O)c3ccc(F)c(C)c3)CC2)c1 | 986 s
32 | Cc1ccc(S(=O)(=O)c2cnc3cc4c(cc3c2N2CCOCC2)OCCO4)cc1 | 849 s
33 | Cc1cccc(C(=O)NC(C)C(=O)Nc2nc3ccccc3[nH]2)c1 (stereo not drawn) | 648 s
34 | COc1ccc(NC(=O)c2cnc(N3CCN(C(=O)c4ccco4)CC3)nc2N)cc1 | 593 s
35 | COc1cccc(-c2nc(-c3ccc4c(c3)nnn4CCN(C)C)no2)c1 | 595 s
36 | NC(=O)c1ccsc1NC(=O)c1c(F)cccc1Cl | 706 s
37 | COc1ccc(N2CCN(C(=O)C3(CCO)CC34CCOCC4)CC2)cc1 (stereo not drawn) | 628 s
38 | CCN1C(=O)c2cccnc2Sc2cc(NC(=O)c3cc(C)cc(C)c3)ccc21 | 918 s
39 | CC(=O)c1ccc(N2CCN(C(=O)c3ccc(-n4cccn4)nn3)CC2)cc1 | 695 s
40 | Cc1cc(-c2nnc(-c3ccccc3)o2)c(C)n1CC(=O)Nc1ccccc1 | 931 s
41 | O=C(Nc1nc(-c2ccc3ccccc3c2)cs1)c1ccc2c(c1)OCO2 | 1160 s
42 | CCOc1cccc(-c2noc(Cn3c(=O)n(-c4ccccc4F)c(=O)c4sccc43)n2)c1 | 1050 s
43 | COC(=O)c1cc(C)nc2c1c(=O)n(Cc1ccc(Cl)cc1)c(=O)n2Cc1ccco1 | 1160 s
44 | Cc1nc(-c2csc(S(=O)(=O)N3CCCC(C(=O)NCCN4CCCCCC4)C3)c2)no1 (stereo not drawn) | 665 s

Row | SMILES | RP-LC retention time
45 | COc1ccc(CCNC(=O)c2ccc3c(c2)N(C)C(=O)C2CCCCN32)cc1OC (stereo not drawn) | 774 s
46 | Cc1ccc(NC(=O)Nc2ccccc2)c(=O)n1CC(=O)N1CCCC1 | 767 s
47 | Cc1cccc(NC(=O)N2CCC3(C2)C(=O)Nc2ccccc23)c1 (stereo not drawn) | 727 s
48 | Cc1ccc(-n2nc(N3CCCC(C(=O)NCc4ccc5c(c4)OCO5)C3)ccc2=O)cc1Cl (stereo not drawn) | 875 s
49 | O=C(CCc1nc2ccccc2[nH]1)N1CCC(c2noc(-c3ccncc3)n2)C1 (stereo not drawn) | 557 s
50 | Cc1ccc(NC(=O)C2CCCN(c3ccc(=O)n(-c4cccc(Cl)c4)n3)C2)c(C)c1 (stereo not drawn) | 964 s
51 | COc1cccc(CN2C(=O)CSc3c(c4ccccc4n3C)C2C(=O)NCCCOC(C)C)c1 (stereo not drawn) | 955 s
52 | O=c1[nH]nc(SC(F)(F)C(F)(F)C(F)(F)F)c(=O)[nH]1 | 709 s
53 | CCOC(=O)c1c(C)[nH]c(C(=O)N2CCCC(C(=O)NCc3cccc(C)c3)C2)c1C (stereo not drawn) | 863 s
54 | CCOC(=O)Cc1csc(NC(=O)C2CC(=O)N(c3n[nH]c4cccc(F)c34)C2)n1 (stereo not drawn) | 699 s
55 | COC(=O)c1ccc(C(=O)N(Cc2ccsc2)Cc2ccco2)cc1 | 832 s
56 | Cc1ccc(Sc2nccnc2N2CCCC(C(=O)N3CCN(c4cccc(C)c4)CC3)C2)cc1 (stereo not drawn) | 1310 s
57 | COc1ccc(NC(=O)N2CCCC(C)(C(=O)NCc3ccccc3)C2)cc1 (stereo not drawn) | 828 s
58 | CCOCCCNC(=O)C1CCCN(C(=O)c2[nH]c(C)cc2C)C1 (stereo not drawn) | 678 s
59 | Cc1cc(C)cc(NC(=O)c2cnn3c2CCCC3)c1 | 603 s
60 | Cc1ccc(S(=O)(=O)Nc2ccc3c(c2)CCC(=O)N3CC(C)C)cc1 | 887 s
61 | O=C(CN1CCN(Cc2ccc(F)cc2Cl)C1=O)NCC1CCCCC1 | 927 s
62 | CCN1C(SCC(=O)N2CCCC2)=NS(=O)(=O)c2ccccc21 | 684 s
63 | N#Cc1ccc(NC(=O)Cn2cccc(-c3nc(-c4ccccc4)no3)c2=O)cc1 | 837 s
64 | O=C(Nc1ccccc1)C1CCc2nc(N3CCN(C(=O)C4CCC4)CC3)sc2C1 (stereo not drawn) | 608 s
65 | COc1ccc(-n2nnc(-c3nsc(Nc4ccc(Cl)cc4)n3)c2C)cc1 | 1060 s
66 | Cc1ccc(N2CC(c3noc(-c4sccc4C)n3)CC2=O)cc1 (stereo not drawn) | 1040 s

Row | SMILES | RP-LC retention time
67 | Cc1ccc(-c2ccc(=O)n(Cc3nc(-c4ccc5c(c4)OCO5)no3)n2)cc1 | 1020 s
68 | O=C(c1ccc2c(c1)OCO2)N1CCC2(CC1)NC(=O)N(Cc1ccc(Cl)cc1)C2=O | 811 s
69 | O=C1CCCc2cc(S(=O)(=O)N3CCC(C(=O)NC4CCCc5ccccc54)CC3)ccc2N1 (stereo not drawn) | 795 s
70 | CN(C)C1(CC2CC2)CCN(C(=O)c2ccoc2)CC1 | 556 s
71 | O=C(NCC1CCCO1)NC1CC(=O)N(c2ccc(Cl)cc2)C1 (stereo not drawn) | 634 s
72 | COc1ccc(-c2nc(C3CC(=O)N(Cc4ccccc4)C3)no2)cc1 (stereo not drawn) | 946 s
73 | Cc1cccc(OCc2nc(-c3cccc(-c4csc(C5CC5)n4)c3)no2)c1 | 1430 s
74 | O=C(C1CCN(c2nc3ccc(-c4cccs4)nc3s2)CC1)N1CCCC1 | 893 s
75 | CCOC(=O)N1CCC(NC(=O)c2nc(-c3cnccn3)no2)CC1 | 631 s
76 | Cc1nn(C)cc1C(=O)NC1CCN(c2ccc(=O)n(C)n2)C1 (stereo not drawn) | 562 s
77 | CC(C)c1ccc(-c2nc(C3CC(=O)N(c4ccc(F)c(Cl)c4)C3)no2)cc1 (stereo not drawn) | 1290 s
78 | CCS(=O)(=O)c1ccc2c(c1)N(Cc1nc(-c3ccc(C)c(C)c3)no1)C(=O)CO2 | 1000 s
79 | Cc1ccc(CNC(=O)C(C)n2nc(C)c3c(C)n(-c4ccccc4)nc3c2=O)o1 (stereo not drawn) | 736 s
80 | CC(=O)N1CCN(S(=O)(=O)c2ccc3c(c2)OCCCO3)CC1 | 641 s
81 | CCc1ccc(C2=C(C)C(N3CCCN(C(=O)NCC(C)C)CC3)=NS2(=O)=O)cc1 | 842 s
82 | COc1cc(Cl)c(NC(=O)C2CCN(C(=O)c3cc(-c4ccncc4)n[nH]3)CC2)c(OC)c1 | 629 s
83 | O=C(Cc1ccc(NC(=O)C2CC2)cc1)NCc1cccs1 | 659 s
84 | CCN(CC)c1ccc(CN(C(=O)Cc2coc3ccc(C)cc23)C2CCS(=O)(=O)C2)cc1 (stereo not drawn) | 706 s
85 | Cc1ccsc1C(=O)Nc1ccc2ncnc(N3CCCCC3)c2c1 | 687 s
86 | CCN1CCCC1CNS(=O)(=O)c1ccc2c(c1)CCN2C(=O)CCC(=O)N1CCCCC1 (stereo not drawn) | 620 s
87 | Cc1cc2n(n1)CCC(=O)N2CCCC(=O)NCCCOC(C)C | 618 s
88 | CCSc1nnc(-c2nn(C)c3c2CN(C(=O)c2ccc(C)cc2)CC3)n1C | 770 s
